In US20030229132A1, “Small molecule modulators of apoptosis” (priority 2002, published 2003):
pIC50: −log10 of the molar value.

What was measured:
procaspase-3 processing = test: Procaspase-3 processing in SK-OV-3 cell lysate with purified Apaf-1; type: biochemical; conditions: 20 μM compound, 150 nM purified Apaf-1, 300 μM dATP
Description: (A) Jurkat cells were transfected with 20 nM Apaf-1 siRNA for 48 hr and half the cells were lysed and probed with antibodies to Apaf-1, caspase-9, and caspase-3. The other half of the cells was incubated with varying concentrations of (B), compound 2 or (C), Fas ligand for 24 hr and assayed for viability by MTT test. (D) SK-OV-3 cells were transiently transfected with Apaf-1 or vector control for 24 hr and then incubated with vary concentrations of compound 2 and assayed for viability. (E) Cyto c was titrated into SK-OV-3 cell lysate in the presence of 300 μM dATP, with or without 150 nM purified Apaf-1 and 20 μM compound 2 as indicated.
If silencing Apaf-1 in Jurkat cells make them resistant to compound 2 induced apoptosis, then it would be expected that ectopic expression of wildtype Apaf-1 in an Apaf-1 deficient cell line should render cells sensitive to compound 2. As mentioned above, the ovarian cancer cell line SK-OV-3 is deficient in Apaf-1 activity and is resistant to compound 2. Apaf-i was cloned into pcDNA-3 and transiently transfected into SK-OV-3 cells using Fugene (Roche) according to the manufacturer's instructions. Transient transfection of Apaf-1 into SK-OV-3 cells rendered them sensitive to compound 2 cytotoxicity as compared to the vector control (FIG. 5D). […]

[1] = tested on: peripheral blood lymphocytes (PBL); test: Cell viability, PBL; type: cell-based, human; conditions: normal cell
Excerpt: Samples were then probed by immunoblot for (A) caspase-3 activation or (B) cleavage of PARP. (C) DNA fragmentation analysis. […] The DNA was isolated by phenol/chloroform extraction, separated on a 2% agarose gel and visualized by ethidium bromide staining. Cell viability assay.
Normal cell lines include peripheral blood lymphocytes (PBL) isolated from donated human blood, non-transformed mammary fibroblasts (MCF-10A), human mammary epithelial cells (HMEC), human umbilical vein endothelial cells (HUVEC), and human prostate epithelial cells (PREC). Transformed cell lines include cell lines from leukemia, breast, lung, ovarian, and epidermal cancers (Table 1).

procaspases-9 and -3 = test: Immunoblot for cleavage of procaspases-9 and -3 in S-100 cytoplasmic extracts; type: biochemical; conditions: 20 μM compound, cyto c 1.25 μM
Description: FIG. 2 depicts activity of compounds 1-5 in cell lysates. (A) Compound activation is cyto c dependent. Cyto c was titrated into S-100 cytoplasmic extracts with vehicle alone or 20 μM compound and procaspase-3 processing was assayed by capture ELISA. (B) Compound activation is dose-dependent. Compounds or vehicle were titrated into S-100 cytoplasmic extracts at a cyto c concentration of 1.25 μM and procaspases-3 processing was assayed by capture ELISA. (C) Immunoblot assay of compound-induced caspase activation. Samples at the 20 μM compound concentration in (B) were separated on SDS-polyacrylamide gel and transferred to polyvinyl membrane. The same membrane was cut and probed with antibodies to caspase-9, the large subunit of active caspase-3, and P13 kinase as a loading control. (D) Compounds act upstream of caspase-9 activation. Cyto c was titrated into caspase-3 immunodepleted extracts with or without 20 μM compounds and assayed by immunoblot for procaspase-9 processing.
To directly visualize the processing of procaspases induced by the compounds, samples at the 20 μM compound concentration in FIG. 2B were assayed by immunoblot for the cleavage of procaspases-9 and -3.

Compound	effect on cyto c activation curve of procaspase-3 processing (procaspase-3 processing)	pIC50 [1]	processing of procaspases-9 and -3 (procaspases-9 and -3)
O=C1C(=O)N(Cc2ccc(Cl)c(Cl)c2)c2ccccc21 [Compound 2]	shifted the activation curve to the left	4.30	
O=C(NCc1ccc(Cl)c(Cl)c1)OC1CCc2ccccc21 (stereo not drawn) [Compound 4]			limited processing
